The values that follow come from patent US20170096422A1, “HETEROCYCLIC COMPOUND” (Takeda Pharmaceutical Company Limited, priority 2014, published 2017).

PKC θ, sequence (Q04759 whole entry): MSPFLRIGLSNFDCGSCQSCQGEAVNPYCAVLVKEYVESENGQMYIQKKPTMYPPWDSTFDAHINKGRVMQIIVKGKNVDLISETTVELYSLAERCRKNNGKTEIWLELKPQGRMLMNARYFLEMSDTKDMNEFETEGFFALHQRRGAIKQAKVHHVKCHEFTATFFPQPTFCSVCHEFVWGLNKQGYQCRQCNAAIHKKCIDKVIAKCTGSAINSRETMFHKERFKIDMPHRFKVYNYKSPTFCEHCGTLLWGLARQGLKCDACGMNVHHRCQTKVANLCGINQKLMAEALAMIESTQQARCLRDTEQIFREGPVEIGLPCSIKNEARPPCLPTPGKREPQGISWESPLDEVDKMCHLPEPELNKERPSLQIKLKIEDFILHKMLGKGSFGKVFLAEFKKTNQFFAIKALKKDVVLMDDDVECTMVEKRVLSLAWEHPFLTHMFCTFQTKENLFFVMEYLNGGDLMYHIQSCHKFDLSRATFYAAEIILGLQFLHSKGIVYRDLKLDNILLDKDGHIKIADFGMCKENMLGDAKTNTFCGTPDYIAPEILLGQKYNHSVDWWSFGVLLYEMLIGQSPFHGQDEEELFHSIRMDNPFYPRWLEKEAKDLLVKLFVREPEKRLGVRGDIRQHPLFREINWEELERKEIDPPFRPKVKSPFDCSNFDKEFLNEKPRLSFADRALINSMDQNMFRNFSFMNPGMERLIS

The first assay addresses PKC θ (Homo sapiens, UniProt Q04759). The assay is described as follows: PKC θ enzyme inhibition test (TR-FRET). The following applies: 1 μM test compound, well without enzyme = 100% inhibition. It is filed as biochemical. How it is done: PKC θ enzyme inhibitory activities of test compounds were measured by TR-FRET method. First, a test compound diluted with assay buffer (20 mM Tris-HCl (pH 7.5), 5 mM MgAcetate, 0.1 mM CaCl2, 1 mM DTT, 0.01% Tween20, 0.05% BSA, 10% PKC Activator (Millipore)) was added to 384-well plate at 2 μL each. Then, a solution diluted with assay buffer to […] of PKC θ and 1.2 μM of a fluorescence-labeled peptide substrate (Fluorescein-PKC Substrate, Life Technologies) was added by 2 μL. Then, enzyme reaction was started by adding 2 μL each of ATP solution prepared with assay buffer to 60 μM. After the reaction at room temperature for 1 hr, TR-FRET Dilution Buffer (Life Technologies) prepared to 20 mM EDTA, 0.6 nM terbium-labeled anti-phosphoserine antibody (Life Technologies) was added by 6 μL. After standing at room temperature for 1 hr, fluorescence intensity (excitation wavelength 340 nm, fluorescence wavelength 520 nm, delay time 100 microseconds) was measured by a plate reader, Envision (PerkinElmer). The inhibitory activity of each compound was calculated as relative activity value where fluorescence intensity of a well without enzyme is considered as 100% inhibition.
For orientation: Time-resolved FRET reads energy transfer from a long-lived donor to a nearby acceptor.
In the case of `CCOc1ccnc2[nH]c(=O)n(-c3ccc4ncc(CC)n4n3)c12` [Example 12, 7-ethoxy-1-(3-ethylimidazo[1,2b]pyridazin-6-yl)-1,3-dihydro-2H-imidazo[4,5-b]pyridin-2-one], the “PKC θ inhibitory activity (%, 1 μM)” value turned out to be 91%.

Staying with this assay, now noted: 1 μM test compound, well without enzyme = 100% inhibition, read-out: PKC θ inhibitory activity (%, 1 μM).
For `CCOc1ccnc2[nH]c(=O)n(-c3ccc4ncn(C)c4c3)c12` [Example 7, 7-ethoxy-1-(1-methyl-1H-benzimidazol-6-yl)-1,3-dihydro-2H-imidazo[4,5-b]pyridin-2-one], the inhibition at 1 µM stood at 100%.

As to `CCOc1ccnc2[nH]c(=O)n(-c3ccc4ncc(CC)n4c3)c12` [Example 11, 7-ethoxy-1-(3-ethylimidazo[1,2-a]pyridin-6-yl)-1,3-dihydro-2H-imidazo[4,5-b]pyridin-2-one], the inhibition at 1 µM was 96%.

As to `CCOc1ccnc2[nH]c(=O)n(-c3ccc4ncn(C)c4n3)c12` [Example 13, 7-ethoxy-3′-methyl-3′H-1,5′-biimidazo[4,5-b]pyridin-2(3H)-one], the inhibition at 1 µM came out at 90%.

As for `CCOc1ccnc2[nH]c(=O)n(-c3ccc4occ(C)c4c3)c12` [Example 15, 7-ethoxy-1-(3-methyl-1-benzo-furan-5-yl)-1,3-dihydro-2H-imidazo[4,5-b]pyridin-2-one], the inhibition at 1 µM stood at 99%.

`CCOc1ccnc2[nH]c(=O)n(-c3ccn4ncc(CC)c4c3)c12` [Example 17, 7-ethoxy-1-(3-ethylpyrazolo[1,5-a]pyridin-5-yl)-1,3-dihydro-2H-imidazo[4,5-b]pyridin-2-one]: the inhibition at 1 µM came to 100%.

Regarding `CCOc1ccnc2[nH]c(=O)n(-c3ccc4[nH]nc(C)c4c3)c12` [Example 18, 7-ethoxy-1-(3-methyl-1H-indazol-5-yl)-1,3-dihydro-2H-imidazo[4,5-b]pyridin-2-one], the inhibition at 1 µM stood at 97%.

Regarding `CCOc1ccnc2[nH]c(=O)n(-c3ccc4nccc(C(N)=O)c4c3)c12` [Example 27, 6-(7-ethoxy-2-oxo-2,3-dihydro-1H-imidazo[4,5-b]pyridin-1-yl)quinoline-4-carboxamide], the inhibition at 1 µM came out at 90%.

Turning to `CCOc1ccnc2[nH]c(=O)n(-c3ccc4ncnc(OC)c4c3)c12` [Example 39, 7-ethoxy-1-(4-methoxyquinazolin-6-yl)-1,3-dihydro-2H-imidazo[4,5-b]pyridin-2-one], the inhibition at 1 µM was 102%.

With `CCOc1ccnc2[nH]c(=O)n(-c3ccc4nccc(OC)c4c3)c12` [Example 41, 7-ethoxy-1-(4-methoxyquinolin-6-yl)-1,3-dihydro-2H-imidazo[4,5-b]pyridin-2-one], the inhibition at 1 µM stood at 97%.

`CCOc1ccnc2[nH]c(=O)n(-c3ccc4nccc(OC)c4n3)c12` [Example 55, 7-ethoxy-1-(8-methoxy-1,5-naphthyridin-2-yl)-1,3-dihydro-2H-imidazo[4,5-b]pyridin-2-one]: the inhibition at 1 µM was 124%.

As to `CCOc1ccnc2[nH]c(=O)n(-c3ccc4nncc(OC)c4c3)c12` [Example 60, 7-ethoxy-1-(4-methoxycinnolin-6-yl)-1,3-dihydro-2H-imidazo[4,5-b]pyridin-2-one], the inhibition at 1 µM turned out to be 101%.

On to `CCOc1ccnc2[nH]c(=O)n(-c3ccc4ncc5c(c4c3)OCCO5)c12` [Example 75, 1-(2,3-dihydro[1,4]-dioxino[2,3-c]quinolin-9-yl)-7-ethoxy-1,3-dihydro-2H-imidazo[4,5-b]pyridin-2-one], for which the inhibition at 1 µM was found to be 101%.

Regarding `CCOc1ccnc2[nH]c(=O)n(-c3ccc4nccc(N5CCNCC5)c4c3)c12` [Example 92, 7-ethoxy-1-(4-(piperazin-1-yl)quinolin-6-yl)-1,3-dihydro-2H-imidazo[4,5-b]pyridin-2-one], the inhibition at 1 µM amounted to 102%.

With `CCOc1cnc2ccc(-n3c(=O)[nH]c4nccc(OCC)c43)cc2n1` [Example 93, 7-ethoxy-1-(3-ethoxyquinoxalin-6-yl)-1,3-dihydro-2H-imidazo[4,5-b]pyridin-2-one], the inhibition at 1 µM came to 94%.

In the case of `CCOc1ccnc2[nH]c(=O)n(-c3cc4c5c(cnc4cc3F)OCCO5)c12` [Example 94, 7-ethoxy-1-(8-fluoro-2,3-dihydro[1,4]dioxino[2,3-c]quinolin-9-yl)-1,3-dihydro-2H-imidazo[4,5-b]pyridin-2-one], the inhibition at 1 µM amounted to 101%.

As to `CCOc1ccnc2[nH]c(=O)n(-c3ccc4ncc(-c5cnn(C)c5)c(OC)c4c3)c12` [Example 177, 7-ethoxy-1-(4-methoxy-3-(1-methyl-1H-pyrazol-4-yl)quinolin-6-yl)-1,3-dihydro-2H-imidazo[4,5-b]pyridin-2-one], the inhibition at 1 µM is 100%.

`CCOc1ccnc2[nH]c(=O)n(-c3ccc4ncc(-c5cn[nH]c5)c(OC)c4c3)c12` [Example 185, 7-ethoxy-1-(4-methoxy-3-(1H-pyrazol-4-yl)quinolin-6-yl)-1,3-dihydro-2H-imidazo[4,5-b]pyridin-2-one]: the inhibition at 1 µM was 101%.

As to `COc1cnnc2ccc(-n3c(=O)[nH]c4nccc(OC5CCC5)c43)cc12` [Example 204, 7-(cyclobutyloxy)-1-(4-methoxycinnolin-6-yl)-1,3-dihydro-2H-imidazo[4,5-b]pyridin-2-one], the inhibition at 1 µM was 101%.

Take `CCOc1ccnc2[nH]c(=O)n(-c3ccc4ncc(F)c(OC)c4c3)c12` [Example 230, 7-ethoxy-1-(3-fluoro-4-methoxyquinolin-6-yl)-1,3-dihydro-2H-imidazo[4,5-b]pyridin-2-one]: the inhibition at 1 µM amounted to 102%.
